Test results reported in patent publication US6599521B1 (priority 2000, dated 2003).

Assays:
TSST-1 = format: cell-based, Staphylococcus aureus; settings: 24 hours at 35° C.
S. aureus MN8 = format: cell-based, Staphylococcus aureus; settings: 24 hours at 35° C.

## CCCCCCCCCCCCCCCCCCOCCOCCO [Steareth-2]
TSST-1
  TSST-1: 680.7 ng/mL
S. aureus MN8
  Final [S. aureus] (× 10^9 CFU/ml): 5.76 × 10^9 CFU/ml

## PPG-5 Laureth-5
TSST-1
  TSST-1: 609.2 ng/mL
S. aureus MN8
  Final [S. aureus] (× 10^9 CFU/ml): 3.82 × 10^9 CFU/ml

## CCCCCCCCCCCCOCCOCCOCCOCCO [Laureth-4]
TSST-1
  TSST-1: 531.8 ng/mL
S. aureus MN8
  Final [S. aureus] (× 10^9 CFU/ml): 4.57 × 10^9 CFU/ml
